Measured values published in patent US6358885B1, “Substituted phenylheterocyclic herbicides” (Mississippi State University, priority 1992, dated 2002).

Tests used:
Assay in all cases: Test B preemergence/postemergence greenhouse plant response rating 0 to 10
[1] = system: chickweed; format: in vivo, Stellaria media; settings: for Plant response rating, Chickweed: 0 to 10 scale
Method in brief: (§1)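 Planted seeds are treated preemergence with compound dissolved in a non-phytotoxic solvent, while postemergence applications go onto plants of two to eighteen cm. Plants stay in the greenhouse twelve to sixteen days and are then rated visually relative to controls.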

[2] = system: corn; format: in vivo, Zea mays; settings: for Plant response rating, Corn: 0 to 10 scale
Method in brief: as §1

[3] = system: crabgrass; format: in vivo, Digitaria spp.; settings: for Plant response rating, Crabgrass: 0 to 10 scale
Method in brief: as §1

[4] = system: morningglory; format: in vivo, Ipomoea hederacea; settings: 0 to 10 scale
Method in brief: as §1

[5] = system: rape; format: in vivo, Brassica napus; settings: 0 to 10 scale
Method in brief: as §1

[6] = system: sorghum; format: in vivo, Sorghum bicolor; settings: 0 to 10 scale
Method in brief: as §1

[7] = system: soybean; format: in vivo, Glycine max; settings: 0 to 10 scale
Method in brief: as §1

[8] = system: wheat; format: in vivo, Triticum aestivum; settings: 0 to 10 scale
Method in brief: as §1

[9] = system: wild oat; format: in vivo, Avena fatua; settings: 0 to 10 scale
Method in brief: as §1

[10] = system: purple nutsedge; format: in vivo, Cyperus rotundus; settings: 0 to 10 scale
Method in brief: as §1

Row | Structure (SMILES) | Plant response rating, Chickweed ([1]; POSTEMERGENCE, Rate 200 g/ha) | Plant response rating, Chickweed ([1]; PREEMERGENCE, Rate 50 g/ha) | Plant response rating, Chickweed ([1]; Rate 200 g/ha, PREEMERGENCE) | Plant response rating (0 to 10 scale), Corn ([2]; POSTEMERGENCE, Rate 50 g/ha) | Plant response rating, Corn ([2]; POSTEMERGENCE, Rate 200 g/ha) | Plant response rating, Corn ([2]; PREEMERGENCE, Rate 50 g/ha) | Plant response rating, Corn ([2]; Rate 200 g/ha, PREEMERGENCE) | Plant response rating (0 to 10 scale), Crabgrass ([3]; POSTEMERGENCE, Rate 50 g/ha) | Plant response rating, Crabgrass ([3]; POSTEMERGENCE, Rate 200 g/ha) | Plant response rating, Crabgrass ([3]; PREEMERGENCE, Rate 50 g/ha) | Plant response rating, Crabgrass ([3]; Rate 200 g/ha, PREEMERGENCE) | Plant response rating, Morningglory ([4]; POSTEMERGENCE, Rate 50 g/ha) | Plant response rating, Morningglory ([4]; POSTEMERGENCE, Rate 200 g/ha) | Plant response rating, Morningglory ([4]; PREEMERGENCE, Rate 50 g/ha) | Plant response rating, Morningglory ([4]; Rate 200 g/ha, PREEMERGENCE) | Plant response rating, Rape ([5]; POSTEMERGENCE, Rate 50 g/ha) | Plant response rating, Rape ([5]; POSTEMERGENCE, Rate 200 g/ha) | Plant response rating, Rape ([5]; PREEMERGENCE, Rate 50 g/ha) | Plant response rating, Rape ([5]; Rate 200 g/ha, PREEMERGENCE) | Plant response rating, Sorghum ([6]; POSTEMERGENCE, Rate 50 g/ha) | further results
1 | Fc1cc(Cl)c(OCc2ccccc2)cc1-c1nn2c(c1Cl)CCCC2 [Compound 22] | 7 | 0 | 2 | 3 | 4 | 2 | 4 | 3 | 2 | 2 | 4 | 5 | 9 | 2 | 2 | 4 | 7 | 0 | 1 | 5 | Plant response rating, Sorghum ([6]; POSTEMERGENCE, Rate 200 g/ha): 5; Plant response rating, Sorghum ([6]; PREEMERGENCE, Rate 50 g/ha): 0; Plant response rating, Sorghum ([6]; Rate 200 g/ha, PREEMERGENCE): 3; Plant response rating, Soybean ([7]; POSTEMERGENCE, Rate 50 g/ha): 5; Plant response rating, Soybean ([7]; POSTEMERGENCE, Rate 200 g/ha): 6; Plant response rating, Soybean ([7]; PREEMERGENCE, Rate 50 g/ha): 0; Plant response rating, Soybean ([7]; Rate 200 g/ha, PREEMERGENCE): 2; Plant response rating, Wheat ([8]; POSTEMERGENCE, Rate 50 g/ha): 3; Plant response rating, Wheat ([8]; POSTEMERGENCE, Rate 200 g/ha): 4; Plant response rating, Wheat ([8]; PREEMERGENCE, Rate 50 g/ha): 0; Plant response rating, Wheat ([8]; Rate 200 g/ha, PREEMERGENCE): 1; Plant response rating, Wild oat ([9]; POSTEMERGENCE, Rate 50 g/ha): 3; Plant response rating, Wild oat ([9]; POSTEMERGENCE, Rate 200 g/ha): 3; Plant response rating, Wild oat ([9]; Rate 200 g/ha, PREEMERGENCE): 1; Plant response rating, Nutsedge ([10]; POSTEMERGENCE, Rate 50 g/ha): 2; Plant response rating, Nutsedge ([10]; POSTEMERGENCE, Rate 200 g/ha): 2; Plant response rating, Nutsedge ([10]; PREEMERGENCE, Rate 50 g/ha): 0; Plant response rating, Nutsedge ([10]; Rate 200 g/ha, PREEMERGENCE): 0
2 | Fc1cc(Cl)c(OC2CCCC2)cc1-c1nn2c(c1Cl)CCCC2 [Compound 24] | 9 | 0 | 3 | 5 | 5 | 0 | 1 | 5 | 5 | 0 | 7 | 9 | 8 | 1 | 5 | 5 | 7 | 2 | 8 | 5 | Plant response rating (0 to 10 scale), Chickweed ([1]; POSTEMERGENCE, Rate 50 g/ha): 8; Plant response rating, Sorghum ([6]; POSTEMERGENCE, Rate 200 g/ha): 6; Plant response rating, Sorghum ([6]; PREEMERGENCE, Rate 50 g/ha): 0; Plant response rating, Sorghum ([6]; Rate 200 g/ha, PREEMERGENCE): 1; Plant response rating, Soybean ([7]; POSTEMERGENCE, Rate 50 g/ha): 6; Plant response rating, Soybean ([7]; POSTEMERGENCE, Rate 200 g/ha): 8; Plant response rating, Soybean ([7]; PREEMERGENCE, Rate 50 g/ha): 0; Plant response rating, Soybean ([7]; Rate 200 g/ha, PREEMERGENCE): 2; Plant response rating, Wheat ([8]; POSTEMERGENCE, Rate 50 g/ha): 3; Plant response rating, Wheat ([8]; POSTEMERGENCE, Rate 200 g/ha): 4; Plant response rating, Wheat ([8]; PREEMERGENCE, Rate 50 g/ha): 0; Plant response rating, Wheat ([8]; Rate 200 g/ha, PREEMERGENCE): 1; Plant response rating, Wild oat ([9]; POSTEMERGENCE, Rate 50 g/ha): 3; Plant response rating, Wild oat ([9]; POSTEMERGENCE, Rate 200 g/ha): 4; Plant response rating, Wild oat ([9]; Rate 200 g/ha, PREEMERGENCE): 2; Plant response rating, Nutsedge ([10]; POSTEMERGENCE, Rate 50 g/ha): 3; Plant response rating, Nutsedge ([10]; POSTEMERGENCE, Rate 200 g/ha): 4; Plant response rating, Nutsedge ([10]; PREEMERGENCE, Rate 50 g/ha): 0; Plant response rating, Nutsedge ([10]; Rate 200 g/ha, PREEMERGENCE): 0
3 | CCCOc1cc(-c2nn3c(c2Cl)CCCC3)c(F)cc1Cl [Compound 23] | 9 | 0 | 6 | 4 | 6 | 0 | 6 | 2 | 6 | 2 | 9 | 8 | 10 | 3 | 8 | 6 | 10 | 3 | 6 | 4 | Plant response rating, Sorghum ([6]; POSTEMERGENCE, Rate 200 g/ha): 6; Plant response rating, Sorghum ([6]; PREEMERGENCE, Rate 50 g/ha): 0; Plant response rating, Sorghum ([6]; Rate 200 g/ha, PREEMERGENCE): 2; Plant response rating, Soybean ([7]; POSTEMERGENCE, Rate 50 g/ha): 8; Plant response rating, Soybean ([7]; POSTEMERGENCE, Rate 200 g/ha): 9; Plant response rating, Soybean ([7]; PREEMERGENCE, Rate 50 g/ha): 1; Plant response rating, Soybean ([7]; Rate 200 g/ha, PREEMERGENCE): 7; Plant response rating, Wheat ([8]; POSTEMERGENCE, Rate 50 g/ha): 2; Plant response rating, Wheat ([8]; POSTEMERGENCE, Rate 200 g/ha): 6; Plant response rating, Wheat ([8]; PREEMERGENCE, Rate 50 g/ha): 0; Plant response rating, Wheat ([8]; Rate 200 g/ha, PREEMERGENCE): 2; Plant response rating, Wild oat ([9]; POSTEMERGENCE, Rate 50 g/ha): 3; Plant response rating, Wild oat ([9]; POSTEMERGENCE, Rate 200 g/ha): 5; Plant response rating, Wild oat ([9]; Rate 200 g/ha, PREEMERGENCE): 6; Plant response rating, Nutsedge ([10]; POSTEMERGENCE, Rate 50 g/ha): 2; Plant response rating, Nutsedge ([10]; POSTEMERGENCE, Rate 200 g/ha): 3; Plant response rating, Nutsedge ([10]; PREEMERGENCE, Rate 50 g/ha): 0; Plant response rating, Nutsedge ([10]; Rate 200 g/ha, PREEMERGENCE): 0
